Experimental data taken from PMC5641330, “Prediction of a Therapeutic Dose for Buagafuran, a Potent Anxiolytic Agent by Physiologically Based Pharmacokinetic/Pharmacodynamic Modeling Starting from Pharmacokinetics in Rats and Human” (Frontiers in Pharmacology, 2017).

Tests used:
[1] = PBPK simulation in rat (GastroPlus)
Description: GastroPlus^TM software (version 8.5) was used to perform all simulations, (Simulations Plus, Inc., Lancaster, CA, United States). The absorption of oral formulations from the GI tract was modeled by the advanced compartmental absorption and transit (ACAT^TM) model implemented in GastroPlus ([Agoram et al., 2001]; [Kuentz et al., 2006]; [Huang et al., 2009]; [Zhang et al., 2011]). Input parameters in the ACAT model include three groups: formulation properties, physicochemical properties and pharmacokinetic parameters. […] The immediate release (IR) suspension for rat and IR capsule for human were selected for simulation of buagafuran in GastroPlus^TM. The ACAT model consists of nine compartments that mimic the GI tract. Each GI tract has an associated ASF. ASF is the multiplier used to scale the permeability to account for different surface-to-volume ratios, pH effects, transporter differences, and other factors that affect absorption between different compartments ([Zhang et al., 2011]). Four coefficients C1–C4 are used to calculate ASF. And there are eight basic ASF models in version 8.5. […]
The pharmacokinetic parameters of unbound fraction in plasma (FUp) were experimentally measured values. […]

[2] = test system: male Wistar rats; assay: Elevated plus-maze (EPM) test in the rat, with sigmoid Emax PK/PD fit; format: in vivo
Protocol: Anxiolytic activity of buagafuran was evaluated by EPM model. The rat EPM consisted of two open arms (50 cm × 10 cm) and two closed arms (50 cm × 10 cm × 40 cm) extending from the central platform (10 cm × 10 cm), the maze rising from the floor by 50 cm.
Male Wistar rats, weighing between 130 and 160 g, were handled daily for 1 week prior to the study and were fasted for 12 h before experiment. Group I: the treated rats received buagafuran formulation of PVP (2, 4, and 8 mg/kg) via the oral route, while the rats that served as control group received vehicle (PVP). Experiments were carried out 10 min after oral administration of drugs or vehicles. Group II: Rats were evaluated 5, 10, 15, 30, 60, 90, 120, and 180 min after oral treatment with buagafuran (4 mg/kg). During a typical test, place each rat on the center of the maze, facing an open arm, and allowing free exploration of the maze for a 5 min test period. An entry was defined by all four paws enter an arm. The total number of arm entries, and the time spent in each type of arm was recorded. The maze was wiped down with 10% ethanol between tests. All experiments were carried out between 9:00 am and 12:00 am.
The difference between control and treatment group was statistically analyzed by one-way analyses of variance (ANOVA). Differences with probabilities of less than 5% (p < 0.05) were regarded as significant.
The PD Plus module implemented in GastroPlus was used. Based on the parameters (R^2 and Akaike criterion) in PK-PD model simulation, the best-fitting model, Sigmoid Emax model, was employed to fit therapeutic PD response (time spent on the open arms) with the brain concentration profile of buagafuran in rat using the equation 4:
(4) E = E0+ EmaxC^γ/EC50 γ+C^γ.
where C is in ng/mL, E0 is the time spent by the control group in the open arms which is equal to 0.63, Emax is the maximum response, EC50 is the concentration of a compound at which 50% of its maximum response is observed and γ is the Hill coefficient. The set of parameter values for the model was determined by GastroPlus software. GastroPlus simulation was then used to predict the brain concentration profile and PD response profile of buagafuran in human.

[3] = Biopharmaceutical classification system (BCS); format: physicochemical
[4] = set-up: method as in Hu et al., 2011; details: rats, oral administration; ref Hu et al., 2011; cited from earlier work
[5] = test system: P-gp; set-up: method as in Li, 2010; details: ref Li, 2010; cited from earlier work

## CCCCC1=CCC[C@@]2(C)CC[C@@H]3C[C@]12OC3(C)C [buagafuran]
[1]; brain, oral, optimized by parameter sensitivity analysis, also used for human simulation
  Kp: 6.7
[1]; optimized by comparing fitting with observed PK data
  input (refined) CLhep: 36.8 mL/min/kg
[2]; rat EPM, oral 4 mg/kg
  time within which activity decreased: ≤ 2 h
[2]; rat EPM, oral 4 mg/kg, p < 0.01 versus vehicle
  time of maximal level of activity: 15 min
[2]; rat EPM, oral 4 mg/kg, p < 0.05 versus vehicle
  onset of action: ≤ 10 min
[2]; rat EPM, oral 2, 4 and 8 mg/kg, dose-dependent, inverted U-shaped
  total time spent in open arms: significantly prolonged
[2]; rat EPM, oral, p < 0.05 versus vehicle
  dose of maximum effect: 4 mg/kg
[2]; time spent in open arms vs rat brain concentration, direct sigmoidal Emax model
  EC50: 0.0106 µg/mL
[3]
  biopharmaceutical classification system (BCS) class: Class II
[4]
  dose recovered as prototype in the bile: < 0.3%
  dose recovered as prototype in the urine: less than 0.1%
  radioactivity recovered in feces: 28.7%
  radioactivity recovered in urine: 51.2%
  total radioactivity recovered: about 80%
[5]
  substrate of the transporter P-gp: substrate of the transporter P-gp
